Test results from ChEMBL document CHEMBL5649166, “RIP3 induces apoptosis independent of pronecrotic kinase activity” (Mol Cell, 2014).

Key:
[1] = biological target: MAP kinase-activated protein kinase 2 (Homo sapiens) (UniProt P49137); test: Inhibition of human MAPKAPK2 using KKLNRTLSVA as substrate at 1 uM in presence of 32P-ATP by Hotspot assay relative to control; values are per cent of control
[2] = biological target: T1, Mitogen-activated protein kinase kinase kinase kinase 2 (Homo sapiens) (UniProt Q12851); test: Inhibition of human GCK/MAP4K2 using myelin basic protein as substrate at 1 uM in presence of 32P-ATP by Hotspot assay relative to control; values are per cent of control
T1 sequence (whole entry): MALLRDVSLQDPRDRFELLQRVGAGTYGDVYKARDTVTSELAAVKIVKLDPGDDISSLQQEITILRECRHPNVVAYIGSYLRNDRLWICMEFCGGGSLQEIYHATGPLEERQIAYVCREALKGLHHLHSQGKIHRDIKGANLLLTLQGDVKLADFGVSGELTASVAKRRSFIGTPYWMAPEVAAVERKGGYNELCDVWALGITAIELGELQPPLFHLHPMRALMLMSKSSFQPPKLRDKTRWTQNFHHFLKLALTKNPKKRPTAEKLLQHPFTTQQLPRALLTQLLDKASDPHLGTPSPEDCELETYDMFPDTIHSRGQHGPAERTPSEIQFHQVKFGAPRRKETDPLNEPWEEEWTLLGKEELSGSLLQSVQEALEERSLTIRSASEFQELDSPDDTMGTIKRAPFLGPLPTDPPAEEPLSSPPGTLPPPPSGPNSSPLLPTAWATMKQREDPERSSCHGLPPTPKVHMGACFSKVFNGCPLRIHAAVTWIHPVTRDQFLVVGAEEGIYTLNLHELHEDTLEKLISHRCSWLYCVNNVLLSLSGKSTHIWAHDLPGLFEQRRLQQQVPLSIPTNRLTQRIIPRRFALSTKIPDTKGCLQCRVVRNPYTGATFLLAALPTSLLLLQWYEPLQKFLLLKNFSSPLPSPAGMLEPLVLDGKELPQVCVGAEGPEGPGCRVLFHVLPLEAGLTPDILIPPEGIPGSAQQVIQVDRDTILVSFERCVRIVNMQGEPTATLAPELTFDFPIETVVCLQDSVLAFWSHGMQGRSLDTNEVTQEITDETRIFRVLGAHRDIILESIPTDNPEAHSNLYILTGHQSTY

[3] = biological target: Casein kinase I isoform gamma-2 (Homo sapiens) (UniProt P78368); test: Inhibition of human CK1g2 using KRRRAL[pS]VASLPGL as substrate at 1 uM in presence of 32P-ATP by Hotspot assay relative to control; values are per cent of control
Sequence of Casein kinase I isoform gamma-2 (Homo sapiens) (P78368 whole entry, looked up, canonical isoform): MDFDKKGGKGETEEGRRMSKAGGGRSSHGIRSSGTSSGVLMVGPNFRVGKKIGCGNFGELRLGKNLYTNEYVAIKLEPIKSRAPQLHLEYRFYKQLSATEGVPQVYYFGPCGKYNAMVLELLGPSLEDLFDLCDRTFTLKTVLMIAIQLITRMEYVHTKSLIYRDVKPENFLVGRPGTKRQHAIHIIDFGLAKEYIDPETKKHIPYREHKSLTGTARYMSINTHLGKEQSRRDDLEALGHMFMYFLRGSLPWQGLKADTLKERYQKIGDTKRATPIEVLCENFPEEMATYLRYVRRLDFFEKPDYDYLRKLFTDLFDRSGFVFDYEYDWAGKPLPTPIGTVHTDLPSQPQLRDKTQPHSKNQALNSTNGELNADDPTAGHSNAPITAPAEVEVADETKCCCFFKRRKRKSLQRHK

[4] = biological target: T2, Testis-specific serine/threonine-protein kinase 2 (Homo sapiens) (UniProt Q96PF2); test: Inhibition of human TSSK2 using KKKVSRSGLYRSPSMPENLNRPR as substrate at 1 uM in presence of 32P-ATP by Hotspot assay relative to control; values are per cent of control
T2 sequence (whole entry): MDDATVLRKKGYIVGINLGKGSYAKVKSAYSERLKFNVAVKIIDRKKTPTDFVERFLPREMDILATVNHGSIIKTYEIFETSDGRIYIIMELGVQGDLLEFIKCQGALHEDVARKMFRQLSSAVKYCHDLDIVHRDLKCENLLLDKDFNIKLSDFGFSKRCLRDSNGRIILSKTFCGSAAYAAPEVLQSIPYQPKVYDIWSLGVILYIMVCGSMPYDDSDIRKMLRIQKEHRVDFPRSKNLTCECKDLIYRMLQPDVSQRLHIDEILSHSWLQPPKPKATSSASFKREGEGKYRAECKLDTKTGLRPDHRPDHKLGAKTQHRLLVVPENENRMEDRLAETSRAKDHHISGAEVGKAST

[5] = biological target: T3, Tyrosine-protein kinase Tec (Homo sapiens) (UniProt P42680); test: Inhibition of human TEC using poly[Glu:Tyr] (4:1) as substrate at 1 uM in presence of 32P-ATP by Hotspot assay relative to control; values are per cent of control
T3 sequence (whole entry): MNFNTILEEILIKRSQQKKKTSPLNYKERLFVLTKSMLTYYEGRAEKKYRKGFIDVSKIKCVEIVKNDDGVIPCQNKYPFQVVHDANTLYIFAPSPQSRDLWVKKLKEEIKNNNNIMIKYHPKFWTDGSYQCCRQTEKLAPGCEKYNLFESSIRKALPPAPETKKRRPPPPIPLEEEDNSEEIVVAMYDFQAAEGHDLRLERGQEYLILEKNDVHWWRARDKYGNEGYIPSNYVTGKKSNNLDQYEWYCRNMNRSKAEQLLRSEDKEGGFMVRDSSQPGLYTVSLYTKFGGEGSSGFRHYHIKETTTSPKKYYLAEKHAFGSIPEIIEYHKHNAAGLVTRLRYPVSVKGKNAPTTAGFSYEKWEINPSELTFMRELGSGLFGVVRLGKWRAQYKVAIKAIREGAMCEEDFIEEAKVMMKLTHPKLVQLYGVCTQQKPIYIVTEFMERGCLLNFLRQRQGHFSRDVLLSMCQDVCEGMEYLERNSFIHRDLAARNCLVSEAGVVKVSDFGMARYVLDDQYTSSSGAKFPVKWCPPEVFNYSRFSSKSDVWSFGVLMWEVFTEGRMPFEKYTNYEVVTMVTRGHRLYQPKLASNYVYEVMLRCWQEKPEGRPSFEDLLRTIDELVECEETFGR

[6] = biological target: T4, Serine/threonine-protein kinase Sgk1 (Homo sapiens) (UniProt O00141); test: Inhibition of human SGK1 using KGSGSGRPRTSSFAEG as substrate at 1 uM in presence of 32P-ATP by Hotspot assay relative to control; values are per cent of control
T4 sequence (whole entry): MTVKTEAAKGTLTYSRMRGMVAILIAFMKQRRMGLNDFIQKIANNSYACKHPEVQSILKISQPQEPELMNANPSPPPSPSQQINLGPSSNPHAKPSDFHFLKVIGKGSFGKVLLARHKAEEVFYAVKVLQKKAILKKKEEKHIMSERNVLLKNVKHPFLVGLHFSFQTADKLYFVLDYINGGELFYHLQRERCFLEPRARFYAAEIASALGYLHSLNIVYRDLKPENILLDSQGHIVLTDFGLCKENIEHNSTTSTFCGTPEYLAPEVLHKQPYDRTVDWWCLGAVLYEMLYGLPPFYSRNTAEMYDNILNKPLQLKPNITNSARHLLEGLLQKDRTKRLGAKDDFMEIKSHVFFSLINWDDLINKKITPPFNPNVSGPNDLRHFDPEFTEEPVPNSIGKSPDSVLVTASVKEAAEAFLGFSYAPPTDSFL

[7] = biological target: CDK1/Cyclin A (Homo sapiens) (UniProt P06493+P20248); test: Inhibition of human CDK1/cyclin A using RB Protein as substrate at 1 uM in presence of 32P-ATP by Hotspot assay relative to control; values are per cent of control
Sequence of CDK1/Cyclin A (Homo sapiens) (P06493 whole entry, looked up): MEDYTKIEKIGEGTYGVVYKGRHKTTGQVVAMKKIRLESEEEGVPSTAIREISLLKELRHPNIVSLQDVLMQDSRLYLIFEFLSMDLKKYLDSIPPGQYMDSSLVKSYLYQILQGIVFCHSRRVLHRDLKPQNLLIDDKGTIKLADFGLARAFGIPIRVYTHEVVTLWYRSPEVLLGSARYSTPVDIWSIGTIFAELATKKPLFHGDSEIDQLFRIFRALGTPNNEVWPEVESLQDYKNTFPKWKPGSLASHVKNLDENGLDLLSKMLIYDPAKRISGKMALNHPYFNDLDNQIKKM
Sequence of CDK1/Cyclin A (Homo sapiens) (P20248 whole entry, looked up): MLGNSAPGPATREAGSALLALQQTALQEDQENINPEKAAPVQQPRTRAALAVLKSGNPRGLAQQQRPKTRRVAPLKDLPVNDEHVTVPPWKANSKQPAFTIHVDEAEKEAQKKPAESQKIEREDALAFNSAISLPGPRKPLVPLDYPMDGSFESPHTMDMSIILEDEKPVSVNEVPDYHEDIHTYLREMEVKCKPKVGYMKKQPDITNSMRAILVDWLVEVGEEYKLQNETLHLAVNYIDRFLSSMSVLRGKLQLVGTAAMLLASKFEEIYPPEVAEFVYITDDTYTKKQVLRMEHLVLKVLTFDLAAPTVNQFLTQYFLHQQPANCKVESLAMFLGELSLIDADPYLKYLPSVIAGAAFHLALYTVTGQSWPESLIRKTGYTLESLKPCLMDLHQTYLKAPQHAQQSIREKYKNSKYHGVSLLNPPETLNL

Sequence of MAP kinase-activated protein kinase 2 (Homo sapiens) (P49137 whole entry, looked up): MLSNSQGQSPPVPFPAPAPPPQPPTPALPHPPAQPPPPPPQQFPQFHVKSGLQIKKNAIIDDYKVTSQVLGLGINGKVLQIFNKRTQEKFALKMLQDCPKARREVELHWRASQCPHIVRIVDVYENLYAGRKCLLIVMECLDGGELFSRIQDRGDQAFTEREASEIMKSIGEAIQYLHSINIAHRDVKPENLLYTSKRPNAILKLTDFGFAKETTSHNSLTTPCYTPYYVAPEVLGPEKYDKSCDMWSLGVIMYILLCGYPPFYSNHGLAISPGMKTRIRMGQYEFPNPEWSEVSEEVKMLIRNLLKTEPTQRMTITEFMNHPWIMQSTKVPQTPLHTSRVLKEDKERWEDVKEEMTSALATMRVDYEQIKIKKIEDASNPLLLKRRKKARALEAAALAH

SMILES | residual activity [1] | residual activity [2] | residual activity [3] | residual activity [4] | residual activity [5] | residual activity [6] | residual activity [7]
Cc1cc(-c2cnc(N)c3c(-c4ccc5scnc5c4)csc23)n(C)n1 | 89.1% | 68.1% | 79.1% | 97.2% | 89.7% | 94.2% | 98.9%
CNC(=O)c1ccc2c(c1)ncn2-c1ccc(CC(=O)OC(C)(C)C)cc1 | 100% | 91.8% | 91.8% | 98.9% | 93.1% | 94.2% | 94.5%
CC(C)S(=O)(=O)c1ccc2nccc(Nc3ccc4scnc4c3)c2c1 | 103% | 88.3% | 100% | 102% | 99.8% | 95.7% | 88.6%
